Results published in patent publication US11865126B2, “Method for treating anxiety disorders, headache disorders, and eating disorders with psilocybin” (priority 2019, dated 2024).

System: healthy subjects
Assay: Life Changes Inventory (LCI)
Type: in vivo, human
Source text: In some embodiments, the Life Changes Inventory (LCI) questionnaire is utilized to evaluate the safety and/or efficacy of psilocybin. The LCI is designed as a questionnaire to investigate those variables present in the day-to-day experience of adults that might relate either to stability or decline of intellectual ability.
The following list of outcome measures are non-exhaustive. • a. The short-term change from Baseline (Day −1 [Visit 2]) to Day 7 (Visit 5) in cognitive measures of attention, spatial and working memory and executive function was measured by a composite score of the CANTAB Panel (Spatial Working Memory [SWM], Rapid Visual Information Processing [RVP], Paired Associates Learning [PAL]). • b. The short-term change from Baseline (Day −1 [Visit 2]) to Day 7 (Visit 5) in Social Cognition Panel scales (Pictorial Empathy Test [PET], Reading the Mind in the Eyes Test [RMET], Toronto Empathy Questionnaire [TEQ], Social Value Orientation [SVO], Scale of Social Responsibility [SSR]). • c. The change from Baseline (Day −1 [Visit 2]) to Day 28 (Visit 6) in cognitive measures of attention, spatial and working memory and executive function as measured by a composite score of the CANTAB Panel (SWM, RVP, PAL). • d. The long-term change from Baseline (Day −1 [Visit 2]) to Day 84 (Visit 7) in Social Cognition Panel scales (PET, RMET, TEQ, SVO, SSR). • e. Dose-related differences between cognitive effects of psilocybin at Baseline (Day −1 [Visit 2]), Day 7 (Visit 5) and Day 28 (Visit 6), as measured by a composite score of the CANTAB Panel (SWM, RVP, PAL). • f. Dose-related differences between psychological effects of psilocybin at Baseline (Day −1 [Visit 2]), Day 7 (Visit 5) and Day 84 (Visit 7), as measured by Social Cognition Panel scales (PET, RMET, TEQ, SVO, SSR). • g. Differences in cognitive effects of psilocybin between psilocybin-naïve and experienced subjects at Baseline (Day −1 [Visit 2]), Day 7 (Visit 5) and Day 28 (Visit 6), as measured by a composite score of the CANTAB Panel (SWM, RVP, PAL). • h. Differences in Positive and Negative Affect Schedule (PANAS) after study drug administration on Day 0 (Visit 3). • i. Differences between psilocybin and placebo in the Emotion Recognition Test (ERT), Intra-Extra Dimensional Set Shift (IED), One Touch Stockings (OTS), Verbal Fluency and Digit Span Forward at Day 7 (Visit 5). • j. A composite score of the CANTAB Panel, including the following tests: • i. Spatial Working Memory (SWM) (performed at Visit 2, Visit 5, and Visit 6). • ii. Rapid Visual Information Processing (RVP) (performed at Visit 2, Visit 5, and Visit 6). • iii. Paired Associates Learning (PAL) (performed at Visit 2, Visit 5, and Visit 6). • k. Cognitive Flexibility Panel • i. Emotion Recognition Task (ERT) (performed at Visit 5). • ii. Intra-Extra Dimensional Set Shift (IED) (performed at Visit 5). • iii. One Touch Stockings (OTS) (performed at Visit 5). • iv. Verbal Fluency (performed at Visit 5). • v. Digit Span Forward (performed at Visit 5). • l. Five Dimension Altered States of Consciousness questionnaire (5D-ASC) (performed at Visit 3). • m. PANAS (performed at Visit 2 and Visit 3). • n. NEO-Five Factor Inventory (NEO-FFI) (performed at Visit 2, Visit 5, and Visit 7). • o. Symptom Checklist-90 item (SCL-90) (performed at Visit 2, Visit 5, and Visit 7). • p. Life Changes Inventory (LCI): The LCI measures changes in attitudes and values after near-death experiences often used to evaluate personal transformation following spiritually oriented experiences and practices. (performed at Visit 5 and Visit 7). • q. Social Cognition Panel scales • i. Pictorial Empathy Test (PET) (performed at Visit 2, Visit 5, and Visit 7). • ii. Reading the Mind in the Eyes Test (RMET) (performed at Visit 2, Visit 5, and Visit 7). • iii. Social Value Orientation (SVO) (performed at Visit 2, Visit 5, and Visit 7). • iv. Toronto Empathy Questionnaire (TEQ) (performed at Visit 2, Visit 5, and Visit 7). • v. […]

Q: Which results are given for CN(C)CCc1c[nH]c2cccc(OP(=O)(O)O)c12 [psilocybin]?
A: LCI Self-Acceptance Scores (LS mean) (10 mg psilocybin, Day 7 (Example 19)): 0.8; LCI Self-Acceptance Scores (LS mean) (10 mg psilocybin, Day 84 (Example 19)): 0.6; LCI Self-Acceptance Scores (LS mean) (25 mg psilocybin, Day 7 (Example 19)): 0.6; LCI Self-Acceptance Scores (LS mean) (25 mg psilocybin, Day 84 (Example 19)): 0.6; LCI - absolute change, difference Psilocybin 10 mg - Placebo (Day 7): 0.4; LCI - absolute change, difference Psilocybin 25 mg - Placebo (Day 7): 0.3; LCI - absolute change, difference Psilocybin (25 mg-10 mg) (Day 7): −0.1; LCI appreciation for life, difference Psilocybin 10 mg - Placebo (Day 7): 0.6; LCI appreciation for life, difference Psilocybin 25 mg - Placebo (Day 7): 0.5; LCI appreciation for life, difference Psilocybin (25 mg-10 mg) (Day 7): −0.2; LCI appreciation of death, difference Psilocybin 10 mg - Placebo (Day 7): 0.1; LCI appreciation of death, difference Psilocybin 25 mg - Placebo (Day 7): 0.1; LCI appreciation of death, difference Psilocybin (25 mg-10 mg) (Day 7): −0.0; LCI concern for others, difference Psilocybin 10 mg - Placebo (Day 7): 0.4; LCI concern for others, difference Psilocybin 25 mg - Placebo (Day 7): 0.4; LCI concern for others, difference Psilocybin (25 mg-10 mg) (Day 7): 0.0; LCI concern for worldly achievement, difference Psilocybin 10 mg - Placebo (Day 7): −0.2; LCI concern for worldly achievement, difference Psilocybin 25 mg - Placebo (Day 7): −0.1; LCI concern for worldly achievement, difference Psilocybin (25 mg-10 mg) (Day 7): 0.1; LCI concern social, difference Psilocybin 10 mg - Placebo (Day 7): 0.1; LCI concern social, difference Psilocybin 25 mg - Placebo (Day 7): 0.2; LCI concern social, difference Psilocybin (25 mg-10 mg) (Day 7): 0.1; LCI quest for meaning, difference Psilocybin 10 mg - Placebo (Day 7): 0.4; LCI quest for meaning, difference Psilocybin 25 mg - Placebo (Day 7): 0.4; LCI quest for meaning, difference Psilocybin (25 mg-10 mg) (Day 7): 0.0; LCI religiousness, difference Psilocybin 10 mg - Placebo (Day 7): −0.1; LCI religiousness, difference Psilocybin 25 mg - Placebo (Day 7): 0.0; LCI religiousness, difference Psilocybin (25 mg-10 mg) (Day 7): 0.1; LCI self-acceptance, difference Psilocybin 10 mg - Placebo (Day 7): 0.7; LCI self-acceptance, difference Psilocybin 25 mg - Placebo (Day 7): 0.5; LCI self-acceptance, difference Psilocybin (25 mg-10 mg) (Day 7): −0.1; LCI spirituality, difference Psilocybin 10 mg - Placebo (Day 7): 0.3; LCI spirituality, difference Psilocybin 25 mg - Placebo (Day 7): 0.2; LCI spirituality, difference Psilocybin (25 mg-10 mg) (Day 7): −0.1; LCI - absolute change, difference Psilocybin 10 mg - Placebo (Day 84): 0.4; LCI - absolute change, difference Psilocybin 25 mg - Placebo (Day 84): 0.4; LCI - absolute change, difference Psilocybin (25 mg-10 mg) (Day 84): −0.0; LCI appreciation for life, difference Psilocybin 10 mg - Placebo (Day 84): 0.6; LCI appreciation for life, difference Psilocybin 25 mg - Placebo (Day 84): 0.5; LCI appreciation for life, difference Psilocybin (25 mg-10 mg) (Day 84): −0.1; LCI appreciation of death, difference Psilocybin 10 mg - Placebo (Day 84): 0.2; LCI appreciation of death, difference Psilocybin 25 mg - Placebo (Day 84): 0.2; LCI appreciation of death, difference Psilocybin (25 mg-10 mg) (Day 84): 0.0; LCI concern for others, difference Psilocybin 10 mg - Placebo (Day 84): 0.4; LCI concern for others, difference Psilocybin 25 mg - Placebo (Day 84): 0.5; LCI concern for others, difference Psilocybin (25 mg-10 mg) (Day 84): 0.1; LCI concern for worldly achievement, difference Psilocybin 10 mg - Placebo (Day 84): −0.2; LCI concern for worldly achievement, difference Psilocybin 25 mg - Placebo (Day 84): −0.1; LCI concern for worldly achievement, difference Psilocybin (25 mg-10 mg) (Day 84): 0.1; LCI concern social, difference Psilocybin 10 mg - Placebo (Day 84): 0.1; LCI concern social, difference Psilocybin 25 mg - Placebo (Day 84): 0.1; LCI concern social, difference Psilocybin (25 mg-10 mg) (Day 84): 0.0; LCI quest for meaning, difference Psilocybin 10 mg - Placebo (Day 84): 0.4; LCI quest for meaning, difference Psilocybin 25 mg - Placebo (Day 84): 0.4; LCI quest for meaning, difference Psilocybin (25 mg-10 mg) (Day 84): −0.0; LCI religiousness, difference Psilocybin 10 mg - Placebo (Day 84): −0.0; LCI religiousness, difference Psilocybin 25 mg - Placebo (Day 84): 0.0; LCI religiousness, difference Psilocybin (25 mg-10 mg) (Day 84): 0.1; LCI self-acceptance, difference Psilocybin 10 mg - Placebo (Day 84): 0.5; LCI self-acceptance, difference Psilocybin 25 mg - Placebo (Day 84): 0.5; LCI self-acceptance, difference Psilocybin (25 mg-10 mg) (Day 84): 0.0; LCI spirituality, difference Psilocybin 10 mg - Placebo (Day 84): 0.4; LCI spirituality, difference Psilocybin 25 mg - Placebo (Day 84): 0.4; LCI spirituality, difference Psilocybin (25 mg-10 mg) (Day 84): −0.0
